Laboratory results taken from patent US20190313934A1, “DEVICE AND SYSTEM FOR MONITORING AND TREATING MUSCLE TENSION-RELATED MEDICAL CONDITIONS” (Biotrak Health, Inc., priority 2016, published 2019).

Experiments:
[1] = Evaluation of analgesics, alone or with the prototype Halo system, on a human subject with recurring headaches; format: in vivo; settings: one subject
Method: The subject was a person in New York City with a history of recurring headaches. Tests were conducted in three stages between December 2016 and March 2017. In the first stage the subject used various over-the-counter analgesics at recommended dosages to manage headache symptoms (Sessions 1 and 2). Conditions were self-assessed prior to drug administration according to a standard headache scale, and then qualitatively reassessed for the extent of relief. In the second stage, the subject took an analgesic at the same time of using a prototype Halo™ system for 5 min (Session 3). In the third stage the subject used the prototype Halo™ system alone for a duration of 10 min on three occasions (Sessions 4-6).

[2] = diazepam combined with EMG biofeedback; chronic anxious patients; cited from earlier work

In the case of `CC(=O)Oc1ccccc1C(=O)O` [aspirin], the Relief ([1]; over-the-counter analgesic alone at recommended dosage, qualitative self-assessment of headache relief) is reported as “Moderate”.
For `CN1C(=O)CN=C(c2ccccc2)c2cc(Cl)ccc21` [diazepam], the “Effect on muscular tension” value [2] is given as “effectively reduced muscular tension”.
With `COc1ccc2cc([C@H](C)C(=O)O)ccc2c1` [naproxen] the Relief ([1]; analgesic taken at the same time as using prototype Halo system for 5 min, qualitative self-assessment) was “Complete”.
